Paper PMC10814857, “Functional Classification and Interaction Selectivity Landscape of the Human SH3 Domain Superfamily” (Cells, 2024)
Values joined by “and” are separate entries in the source; they are usually repeats but may differ in a detail not shown here. Equal values may be shown once. Read-outs that look alike come from different tables or passages of the source. Peptide text beside a SMILES is read from it.

Experiments:
Test in all cases: Fluorescence polarization SH3 domain-PRP binding
[1] = target: T1, SNX9 SH3 domain (aa 1-62) (Homo sapiens, UniProt Q9Y5X1); settings: FP, 0.2 µM fluorescein-labeled peptide, SH3 domain 0-200 µM, Tris/HCl pH 7.5, 25 °C, quadratic fit
T1 construct: 1-62; GST (N); made in house; host or cells: Escherichia coli CodonPlus, Rosetta, BL21(DE3)
Protocol: (§1) The interaction between fluorescein-labeled proline-rich peptides (0.2 µM) and increasing concentrations of SH3 domains (ranging from 0 to 200 µM) was measured in a buffer (containing 30 mM Tris/HCl (pH 7.5), 5 mM MgCl2, and 3 mM DTT at 25 °C) in a total volume of 200 µL using a Fluoromax 4 fluorimeter in polarization mode and a quartz glass fluorescence cuvette (Hellma Ultra-Micro Cuvette 105.250-QS, Thermo Fisher Scientific, Waltham, MA USA). Excitation was performed at 470 nm and emission was measured at 560 nm. Dissociation constants (Kd) were determined by fitting the concentration-dependent binding curve to a quadratic ligand binding equation.
(§2) Fluorescence polarization measurements were performed to determine the binding affinities of SH3 domain–PRP interaction pairs from the dot blot analysis. SH3 proteins were titrated at increasing concentrations against fluorescent PRPs, which were kept at a constant concentration of 0.2 µM. GRB2-2^W193K, which is defective in the binding of PRPs such as RP1, was used as a negative control as previously described. […] The resulting data (Figure S6) allowed the evaluation of equilibrium dissociation constants (Kd) for 45 interactions between the SH3 domains and the PRPs (Figure 2B; Table S6).
(§3) Figure S6. Interactions of the SH3 domains with fluorescent PRPs measured by fluorescence polarization.
(§4) Fluorescent peptides (0.2 µM) were titrated with increasing concentrations of the corresponding SH3 domains.
(§5) GRB2-2W193K, defective in the binding of PRPs such as RP1, was used as a negative control as previously described. The x-axis represents SH3 domain concentrations as GST fusion proteins in µM, while the y-axis represents fluorescence polarization. The equilibrium dissociation constants (Kd) for the respective measurements were determined by fitting the titration curves to a quadratic ligand-binding equation (solid lines). All Kd values are […]
(§6) Error bars are derived from the fitting errors.

[2] = target: T2, NCK1-2 SH3 domain (aa 106-165) (Homo sapiens, UniProt P16333); settings: FP, 0.2 µM fluorescein-labeled peptide, SH3 domain 0-200 µM, Tris/HCl pH 7.5, 25 °C, quadratic fit
T2 construct: 106-165; GST (N); made in house; host or cells: Escherichia coli CodonPlus, Rosetta, BL21(DE3)
Protocol: as §1, §2, §3, §4, §5, §6

[3] = target: T3, SH3PXD2A-1 SH3 domain (aa 166-225) (Homo sapiens, UniProt Q5TCZ1); settings: FP, 0.2 µM fluorescein-labeled peptide, SH3 domain 0-200 µM, Tris/HCl pH 7.5, 25 °C, quadratic fit
T3 construct: 166-225; GST (N); made in house; host or cells: Escherichia coli CodonPlus, Rosetta, BL21(DE3)
T3 sequence (Q5TCZ1 166-225): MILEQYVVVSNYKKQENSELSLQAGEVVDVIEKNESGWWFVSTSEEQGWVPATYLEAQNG
Protocol: as §1, §2, §3, §4, §5, §6

[4] = target: T4, NCK1-3 SH3 domain (aa 190–252) (Homo sapiens, UniProt P16333); settings: NCK1-3 (wt), FP, 0.2 µM fluorescein-labeled peptide, SH3 domain 0-200 µM, Tris/HCl pH 7.5, 25 °C, quadratic fit
T4 construct: 190–252; GST (N); made in house; host or cells: Escherichia coli CodonPlus, Rosetta, BL21(DE3)
Protocol: as §1, §2, §3, §4, §5, §6

NPHP1 SH3 domain = target: T5, NPHP1 SH3 domain (Homo sapiens, UniProt O15259); settings: FP, 0.2 µM fluorescein-labeled peptide, SH3 domain 0-200 µM, Tris/HCl pH 7.5, 25 °C, quadratic fit
T5 construct: GST (N); made in house; host or cells: Escherichia coli CodonPlus, Rosetta, BL21(DE3)
T5 sequence (O15259 152-212 limits assumed): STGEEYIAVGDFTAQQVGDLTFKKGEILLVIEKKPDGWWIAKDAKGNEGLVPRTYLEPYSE
Protocol: as §1, §2, §3, §4, §5, §6

[5] = target: T6, ITSN1-4 SH3 domain (aa 1070-1138) (Homo sapiens, UniProt Q15811); settings: FP, 0.2 µM fluorescein-labeled peptide, SH3 domain 0-200 µM, Tris/HCl pH 7.5, 25 °C, quadratic fit
T6 construct: 1070-1138; GST (N); made in house; host or cells: Escherichia coli CodonPlus, Rosetta, BL21(DE3)
T6 sequence (Q15811 1070-1138): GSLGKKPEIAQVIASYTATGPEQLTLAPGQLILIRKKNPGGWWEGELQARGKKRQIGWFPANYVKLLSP
Protocol: as §1, §2, §3, §4, §5, §6

[6] = target: T7, SH3GLB1 SH3 domain (aa 305-365) (Homo sapiens, UniProt Q9Y371); settings: FP, 0.2 µM fluorescein-labeled peptide, SH3 domain 0-200 µM, Tris/HCl pH 7.5, 25 °C, quadratic fit
T7 construct: 305-365; GST (N); made in house; host or cells: Escherichia coli CodonPlus, Rosetta, BL21(DE3)
T7 sequence (Q9Y371 305-365): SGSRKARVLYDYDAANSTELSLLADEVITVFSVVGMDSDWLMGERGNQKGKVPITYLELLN
Protocol: as §1, §2, §3, §4, §5, §6

[7] = target: T8, SORBS1-1 SH3 domain (aa 793-852) (Homo sapiens, UniProt Q9BX66); settings: FP, 0.2 µM fluorescein-labeled peptide, SH3 domain 0-200 µM, Tris/HCl pH 7.5, 25 °C, quadratic fit
T8 construct: 793-852; GST (N); made in house; host or cells: Escherichia coli CodonPlus, Rosetta, BL21(DE3)
T8 sequence (Q9BX66 793-852): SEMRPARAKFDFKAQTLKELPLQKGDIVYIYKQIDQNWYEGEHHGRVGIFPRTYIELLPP
Protocol: as §1, §2, §3, §4, §5, §6

[8] = target: T9, RASA1 SH3 domain (aa 279–341) (Homo sapiens, UniProt P20936); settings: FP, 0.2 µM fluorescein-labeled peptide, SH3 domain 0-200 µM, Tris/HCl pH 7.5, 25 °C, quadratic fit
T9 construct: 279–341; GST (N); made in house; host or cells: Escherichia coli CodonPlus, Rosetta, BL21(DE3)
T9 sequence (P20936 279-341): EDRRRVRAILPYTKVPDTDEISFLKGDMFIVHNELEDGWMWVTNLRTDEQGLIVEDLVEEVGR
Protocol: as §1, §2, §3, §4, §5, §6

[9] = target: T10, SRC SH3 domain (aa 77-140) (Homo sapiens, UniProt P12931); settings: FP, 0.2 µM fluorescein-labeled peptide, SH3 domain 0-200 µM, Tris/HCl pH 7.5, 25 °C, quadratic fit
T10 construct: 77-140; GST (N); made in house; host or cells: Escherichia coli CodonPlus, Rosetta, BL21(DE3)
Protocol: as §1, §2, §3, §4, §5, §6

[10] = target: T11, RIMBP3B-1 SH3 domain (aa 832-899) (Homo sapiens, UniProt A6NNM3); settings: FP, 0.2 µM fluorescein-labeled peptide, SH3 domain 0-200 µM, Tris/HCl pH 7.5, 25 °C, quadratic fit
T11 construct: 832-899; GST (N); made in house; host or cells: Escherichia coli CodonPlus, Rosetta, BL21(DE3)
T11 sequence (A6NNM3 832-899): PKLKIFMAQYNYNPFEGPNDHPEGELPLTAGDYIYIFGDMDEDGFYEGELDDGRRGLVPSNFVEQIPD
Protocol: as §1, §2, §3, §4, §5, §6

[11] = target: T12, ITSN1-5 SH3 domain (aa 1155-1214) (Homo sapiens, UniProt Q15811); settings: FP, 0.2 µM fluorescein-labeled peptide, SH3 domain 0-200 µM, Tris/HCl pH 7.5, 25 °C, quadratic fit
T12 construct: 1155-1214; GST (N); made in house; host or cells: Escherichia coli CodonPlus, Rosetta, BL21(DE3)
T12 sequence (Q15811 1155-1214): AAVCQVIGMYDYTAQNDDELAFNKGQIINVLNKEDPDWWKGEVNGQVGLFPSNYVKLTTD
Protocol: as §1, §2, §3, §4, §5, §6

T1 sequence (Q9Y5X1 1-62): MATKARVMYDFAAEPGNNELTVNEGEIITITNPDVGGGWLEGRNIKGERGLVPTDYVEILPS
T10 sequence (P12931 77-140 limits assumed): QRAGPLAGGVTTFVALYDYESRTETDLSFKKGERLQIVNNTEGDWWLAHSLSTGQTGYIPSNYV

Kd [1]	Kd ([2]; read-out: Kd)	Kd [3]	Kd ([4]; read-out: Kd)	Kd (NPHP1 SH3 domain)	Kd [5]	Kd [6]	Kd [7]	Kd [8]	Kd [9]	Kd [10]	Kd [11]	Kd [2]	Kd [4]	Compound
> 200 µM	> 200 µM	> 200 µM	> 200 µM	> 200 µM	> 200 µM	> 200 µM	> 200 µM	> 200 µM	> 200 µM	> 200 µM	> 200 µM	–	–	CC[C@H](C)[C@H](NC(=O)[C@H](Cc1c[nH]cn1)NC(=O)[C@@H](N)CCC(N)=O)C(=O)N1CCC[C@H]1C(=O)N[C@@H](CCCCN)C(=O)N[C@@H](CC(C)C)C(=O)N1CCC[C@H]1C(=O)N1CCC[C@H]1C(=O)N[C@@H](CCCCN)C(=O)N[C@H](C(=O)N[C@@H](Cc1ccc(O)cc1)C(=O)O)[C@@H](C)O [Peptide P10] (H-QHIPKLPPKTY-OH; N-terminus and C-terminus assumed)
> 200 µM	> 200 µM	> 200 µM	> 200 µM	> 200 µM	> 200 µM	> 200 µM	> 200 µM	> 200 µM	> 200 µM	> 200 µM	12 µM	–	–	CC[C@H](C)[C@H](NC(=O)[C@H](C)NC(=O)[C@@H]1CCCN1C(=O)[C@@H]1CCCN1C(=O)[C@H](CO)NC(=O)[C@H](CC(=O)O)NC(=O)[C@@H](N)CC(C)C)C(=O)N1CCC[C@H]1C(=O)N1CCC[C@H]1C(=O)N[C@@H](CCCNC(=N)N)C(=O)N[C@@H](CCC(N)=O)C(=O)N1CCC[C@H]1C(=O)N[C@H](C(=O)N[C@@H](CO)C(=O)N[C@@H](CCCCN)C(=O)O)[C@@H](C)O [Peptide P4] (H-LDSPPAIPPRQPTSK-OH)
> 200 µM	> 200 µM	> 200 µM	9 µM and 0.9 µM	> 200 µM	> 200 µM	> 200 µM	> 200 µM	> 200 µM	> 200 µM	> 200 µM	> 200 µM	do not bind	tightly bound	CC[C@H](C)[C@H](N)C(=O)N[C@@H](C)C(=O)NCC(=O)N1CCC[C@H]1C(=O)N1CCC[C@H]1C(=O)N[C@H](C(=O)N1CCC[C@H]1C(=O)N1CCC[C@H]1C(=O)N[C@@H](CCCNC(=N)N)C(=O)N[C@@H](CCC(N)=O)C(=O)N[C@@H](CO)C(=O)O)C(C)C [Peptide P9] (H-IAGPPVPPRQS-OH)
> 200 µM	> 200 µM	> 200 µM	> 200 µM	> 200 µM	> 200 µM	> 200 µM	> 200 µM	> 200 µM	> 200 µM	> 200 µM	> 200 µM	–	–	CC[C@H](C)[C@H](N)C(=O)N[C@@H](CO)C(=O)N[C@@H](CC(=O)O)C(=O)N1CCC[C@H]1C(=O)N1CCC[C@H]1C(=O)N[C@@H](CCC(=O)O)C(=O)N[C@@H](CO)C(=O)N1CCC[C@H]1C(=O)N1CCC[C@H]1C(=O)N[C@@H](CC(C)C)C(=O)N[C@@H](CC(C)C)C(=O)N1CCC[C@H]1C(=O)N1CCC[C@H]1C(=O)N[C@@H](CCCNC(=N)N)C(=O)N[C@@H](CCC(=O)O)C(=O)N1CCC[C@H]1C(=O)N[C@H](C(=O)N[C@@H](CCCNC(=N)N)C(=O)N[C@H](C(=O)N1CCC[C@H]1C(=O)N[C@@H](CC(=O)O)C(=O)N[C@H](C(=O)O)C(C)C)[C@@H](C)O)C(C)C [Peptide P5] (H-ISDPPESPPLLPPREPVRTPDV-OH)
